# In patent US9072742B2, “Method of predicting a predisposition to QT prolongation” (Vanda Pharmaceuticals, Inc., priority 2009, dated 2015):
# Several values for one entry are separate records, joined by “and”; a condition that tells them apart may be missing. Equal values may be shown once.
# Tested on: individuals genotyped at the rs1083338 locus (BAI3 gene)
# Test: QT prolongation (change in QTc, Fridericia) after oral iloperidone for two weeks, by rs1083338 genotype
# Type: in vivo, human
# Settings: for Odds Ratio: GG vs non-GG at rs1083338, iloperidone 24 mg/day; for High QT +test (number of individuals) / Low QT +test (number of individuals) / High QT −test (number of individuals) / Low QT −test (number of individuals): iloperidone 24 mg/day B.I.D. oral; for High QT +test (number of individuals) / Low QT +test (number of individuals): GG genotype at rs1083338; for High QT −test (number of individuals) / Low QT −test (number of individuals): genotype other than GG at rs1083338
# Description: Since the QT interval changes with changes in heart rate, the QT interval is often measured as a corrected QT (QTc) interval. Any number of formulas may be employed to calculate the QTc, including, for example, the Fridericia formula (QTcF), the Bazett formula (QTcB), and the Rautaharju formula (QTp), among others. In the studies described herein, QT was calculated using the Fridericia formula. However, the present invention includes the use of any such formula or method for calculating a QTc or an uncorrected QT. Using the genotypes at the SNP loci above, it is possible, with a high degree of certainty, to predict an individual's predisposition to QT prolongation.
smiles,measurement,setting,value
"COc1cc(C(C)=O)ccc1OCCCN1CCC(c2noc3cc(F)ccc23)CC1 [iloperidone, 1-[4-[3-[4-(6-fluoro-1,2-benzisoxazol-3-yl)-1-piperidinyl]propoxy]-3-methoxyphenl]ethanone]",Odds Ratio,Change threshold QT > 5 msec,4.21
same,High QT +test (number of individuals),Change threshold QT > 5 msec,39
same,Low QT +test (number of individuals),Change threshold QT > 5 msec,seven and 7
same,High QT −test (number of individuals),Change threshold QT > 5 msec,78
same,Low QT −test (number of individuals),Change threshold QT > 5 msec,59
same,Odds Ratio,Change threshold QT > 15 msec,3.61
same,High QT +test (number of individuals),Change threshold QT > 15 msec,29
same,Low QT +test (number of individuals),Change threshold QT > 15 msec,17
same,High QT −test (number of individuals),Change threshold QT > 15 msec,44
same,Low QT −test (number of individuals),Change threshold QT > 15 msec,93
same,Odds Ratio,Change threshold QT > 30 msec,3.84
same,High QT +test (number of individuals),Change threshold QT > 30 msec,14
same,Low QT +test (number of individuals),Change threshold QT > 30 msec,32
same,High QT −test (number of individuals),Change threshold QT > 30 msec,14
same,Low QT −test (number of individuals),Change threshold QT > 30 msec,123
